# Data as given in patent US10500248B2, “Method for treating cancer” (SUNNYBROOK RESEARCH INSTITUTE, priority 2015, dated 2019).
# Read-outs that look alike come from different tables or passages of the source.
# Tests used:
# [1] = system: PC3 cells; test: Matrigel invasion assay, PC3; format: cell-based, human; conditions: 5 nM docetaxel, desmopressin 1 nM and 1 uM
# Description: (§1) The migration of cells was measured using transwell insert plates (BD Biosciences, Bedford Mass.) according to the manufacture's protocol. Cells were subjected to 24 h of serum deprivation in DMEM/F12 supplemented with FBS. PC3 (5×10^4) cells were plated onto filters in 8.0-μm transwell insert plates and treated with these compounds, desmopressin (1 nM, 1 μM) and 5 nM docetaxel, in serum-free medium. The lower chamber also contained 10% FBS. Cells were allowed to migrate for 24 h. After the treatment, cells remaining on the top surfaces of the filter were removed using cotton swabs. The migrated cells that are attached to the lower surface of the filter were fixed in 4% formaldehyde at room temperature for 30 min, and then stained with crystal violet for 20 min. The migrated cells from random fields were chosen and counted using the computer-based microscopy imaging system. For the invasion assay, the same procedures were performed as described in the migration assay, except that the cells were plated onto 24-well matrigel-coated transwell plates (BD Biosciences, Bedford Mass.). The experiments were repeated 2 times in duplicates and statistical analysis performed.
# [2] = system: PC3 cells; test: Flow cytometry cell cycle analysis (BrdU labeling), PC3; format: cell-based, human
# Description: To analyze cell cycle profiles, cells were plated at a density of 1×10^6 per 10 cm dish. Asynchronously growing cells were pulse labeled with […] bromodeoxyuridine (BrdU) for 2 h with or without prior treatment of the antioxidants at the end of 24 h. Cells were then harvested, fixed with 70% ethanol, treated with 0.1% HCl and heated for 10 min at 90° C. to expose the labeled DNA. Cells were stained with anti-BrdU-conjugated FITC (Becton-Dickinson) and counterstained with propidium iodide, and then allowed to incubate for 30 mins on ice. Samples were filtered through a nylon mesh. Cell cycle analysis was carried out on the FACS Calibur flow cytometer using the Cell Quest Pro software package (Becton-Dickinson, CA, USA). The experiments were repeated 3 times in triplicates and statistical analysis performed as mentioned below.
# [3] = system: PC3 cells; conditions: for body weight: during each study
# Description: The mice were housed and maintained in laminar flow cabinets under specific pathogen-free conditions in facilities approved by the University of Toronto Animal Research Ethics Board and in accordance with their regulations and standards by the Canadian Council on Animal Care (CCAC). Cells (1×10^6 PC3 cells with 100 μl martrigel solution (BD Biosciences, CA, USA)) were inoculated subcutaneously (sc) into 6-8 week-old male nude mice (Harlan Sprague Dawley, Inc.). After 14 days, the developing tumors were measured and mice randomly assigned to different treatment groups. Tumor volumes were determined by measurement of tumor length (L) and width (W) with a caliper and calculated according to the formula: V=(L×W^2)(π/6) twice a week. A tumor volume in the range of 100 mm^3 was required for a given mouse to be included. Using the xenograft model, tumor growth was determined for the control and each treatment mice. Mice were randomized into four groups; control (n=15), desmopressin alone (n=15), docetaxel alone (n=10) and desmopressin in combination with docetaxel (n=10). Control animals received only the saline vehicle. Desmopressin from Ferring Pharmaceuticals (Ferring Inc, CA, USA) was administrated in 2 doses, 0 h and 24 h. Mice received desmopressin intravenously in the saline at a final dose of 2 μg/ml/body weight (50 ng/0.3 ml saline dose). Mice were administrated docetaxel at a dose of 5 mg/kg intravenously as 3 weekly cycles. Desmopressin was administrated in 2 doses, 30 min prior to and 24 h after the administration of docetaxel. The animals that were administrated docetaxel or desmopressin in combination with docetaxel were sacrificed 35 days after cell inoculation. Control and desmopressin mice were monitored until tumor volume was approximately 1500 mm3 or day 49, whichever earlier, in order to evaluate antitumor effect of desmopressin in vivo study.
# All experiments were performed in triplicates. The date represented mean±the standard error of the mean. Statistical analysis was done by Student's t test at a significance level of P<0.05. Analyses of the in vivo results were performed using either Student's t-testing or repeated measures one-way ANOVA techniques.
# [4] = system: PC3 cells; test: Transwell cell migration assay, PC3; format: cell-based, human; conditions: PC3, 24 h; desmopressin 1 nM and 1 μM; 5 nM docetaxel in combination
# Description: as §1
# [5] = system: PC3 cells; test: MTS cell proliferation assay, PC3; format: cell-based, human; conditions: PC3, 72 h; docetaxel 0-100 nM; desmopressin 1 nM-1 μM; combination desmopressin (1 nM, 1 μM) and 5 nM docetaxel
# Description: PC3 human prostate carcinoma cells were obtained from the American Type Culture Collection (Rockville, Md., USA). Cells were cultured in DMEM/F12 medium (Invitrogen, ON, Canada) with 10% fetal bovine serum (FBS; Gibco, NY, USA), 100 IU/ml penicillin, 100 μg/ml streptomycin and 0.3 mg/ml 1-glutamine, and maintained at 37° C. in a humidified atmosphere of 5% CO2 in air. Cells were grown to 80% confluence in 10-cm tissue culture plates.
# Cell proliferation was determined by MTS assay as previously described.^14 Cells (5×10^3/well) were plated using 96 well plates. After cultivation for 24 h, a range of concentration of desmopressin (100 pM-1 μM) and/or Docetaxel (1 nM-100 nM) were added and culture continued for up to 72 h. Cell viability was assessed by incubation with MTS for 2 hours and resulting absorbance measured at 595 nm using an ELISA plate reader. In the combination studies, varying dose of each agents were tested. The experiments were repeated 3 times in triplicates and statistical analysis performed.
# [6] = system: pro-uPA, active uPA, uPAR, MMP-2 and MMP-9 in PC3 cells; test: Western blot of uPA-MMP pathway, PC3; format: cell-based, human
# Description: (§2) Protein lysates from the desmopressin monotherapy dose response study (100 pM-1 uM), desmopressin monotherapy time point study (1 uM, 0-48 h) and combination study and concentrated media employed for Western blot analysis, were prepared as previously described.^14 The proteins were subjected to 10-12% SDS-PAGE and electrophoretically transferred onto a PVDF membrane at 100V/300 mA overnight using a semidry transfer apparatus (Bio-Rad Laboratories, Hercules, Calif.). After activation in methanol (100%), blots were incubated for 60 mins at room temperature in TBST containing 5% skimmed milk. After washing, the membranes were incubated with primary antibodies against Bax, bcl-2, p21 (waf1/cip1), p27 (kip1), cdk2, cdk4, uPA, uPAR, MMP-2 and MMP-9 (1:100-200, Santacruz Biotechnology, Santacruz, Calif., USA). After incubation with respective primary antibody, the membrane was washed with TBST 3 times for 5 min, then incubated with appropriate secondary antibody for 1 h at room temperature and washed with TBST 3 times for 5 min. Protein detection was performed with enhanced chemiluminescence Western blotting regents (Amersham Pharmacia Biotech, Buckinghamshire, UK).
# [7] = system: DU145 cells; test: DU145 xenograft model in athymic nude mice; format: in vivo; conditions: day 55 post inoculation
# Description: 6-week old male athymic nude mice (Charles river, QC, Canada) were used to evaluate the effect of combination therapy on DU145 tumor growth in vivo. […] Following 2 weeks of housing, 1×10^6 DU145 cells per animal in 100 μL matrigel solution (BD Bioscience, CA, USA) were inoculated subcutaneously, according to procedure described by Fridman et al (51). After 14 days following inoculation, body weight and tumor size were measured, and mice were randomly assigned to different treatment groups. Groups included control (sham treatments), DTX (5 mg/kg body weight) intraperitoneally, Desmopressin (2 μg/ml/body weight) intravenously 30 minutes prior to IP injection and 24 hours later or combination therapy (n=4 per group). Each group received treatment once every other week for a total of 3 treatments. Animal weight and tumor measurements were assessed regularly. Tumor size was calculated by length (L) and width (W) measured with caliper according to the following formula: V=(L×W2) ( […] /6).
# Two weeks following the last treatment, mice were euthanized; tumors were excised, measured directly with caliper and sent for histological analysis.
# Statistics: Tumor volume calculated during the treatment period were compared using repeated measures one-way ANOVA test (SPSS©). Final tumor volume and body weight measurements were compared separately using one-way ANOVA test.
# [8] = system: cyclin A, cyclin B, CDK2, CDK4, p21(waf1/cip1), p27(kip1), Bax, Bcl-2, PARP, Caspase 3 in PC3 cells; test: Western blot of cell cycle and apoptosis proteins, PC3; format: cell-based, human
# Description: as §2
# [9] = system: DU145 cells; test: Wound healing assay, DU145; format: cell-based; conditions: for effect on migration (wound closure) compared to control: 10 nM DTX alone, Desmopressin alone
# Description: The motility inhibitory potential of desmopressin alone and/or in combination with docetaxel was accessed by wound healing assay according to previously described protocol^49, 50. DU145 cell were plated on 24-well plates at a concentration of 50,000 cells per well and were allowed to grow until they reached 90-100% confluence. After incubating the cells with 1 mg/L Mitomycin C (Sigma©) for 1 hour, a vertical scratch across each well was created; floating cells removed and cell media or media with treatment solutions were added. Images were obtained at zero-time point and after 24 hours of treatment. A computer-based microscopy imaging system with X200 magnification (Axiovision©) was used to measure wound healing of each well. Each experiment was carried out in duplicates and repeated three times
# [10] = dose response study 100 pM-1 uM
structure (smiles),measurement,setting,value
"NC(=O)CC[C@@H]1NC(=O)[C@H](Cc2ccccc2)NC(=O)[C@H](Cc2ccc(O)cc2)NC(=O)CCSSC[C@@H](C(=O)N2CCC[C@H]2C(=O)N[C@H](CCCN=C(N)N)C(=O)NCC(N)=O)NC(=O)[C@H](CC(N)=O)NC1=O [desmopressin, 1-desamino-8-D-arginine vasopressin]","cell invasion, matrigel invasion assay",[1],significantly inhibition of cell invasion
same,cell cycle distribution,[2]; monotherapy,did not alter cell cycle distribution
same,mean tumor volume,"[3]; PC3 xenograft, nude mice, day 35 post tumor inoculation, desmopressin 2 μg/ml/body weight i.v.",642 mm3
same,body weight,"[3]; PC3 xenograft, nude mice",consistently maintained their body weight
same,tolerability of treatment,"[3]; PC3 xenograft, nude mice, intravenous injection",well tolerated
same,tumor growth / tumor size versus control (and docetaxel alone),"[3]; PC3 xenograft, nude mice, docetaxel 5 mg/kg i.v., desmopressin 2 μg/ml/body weight i.v.",significantly slower rate of tumor development
same,"cell migration, transwell plates",[4],significantly inhibited cell migration
same,"cell proliferation / cell viability (MTS), relative to untreated control cells",[5],significantly reduced cell proliferation
same,expression of MMP-2,[6]; [10],reduced in a dose dependent manner
same,expression of MMP-9,[6]; [10],reduced in a dose dependent manner
same,expression of active uPA,[6]; [10],reduced in a dose dependent manner
same,expression of precursor pro-uPA,[6]; [10],reduced in a dose dependent manner
same,expression of uPAR,[6]; [10],unaltered
same,expression of MMP-2,"[6]; time point study, 1 μM, 0-48 h",reduced in a time dependent manner
same,expression of MMP-9,"[6]; time point study, 1 μM, 0-48 h",reduced in a time dependent manner
same,expression of uPA,"[6]; time point study, 1 μM, 0-48 h",reduced in a time dependent manner
same,expression of uPAR,"[6]; time point study, 1 μM, 0-48 h",not altered
same,"average tumor size, final direct measurement of excised tumors",[7],1597±681 mm3
same,expression of (total) Caspase 3,[8],did not reduce the expression
same,expression of PARP,[8],did not reduce the expression
same,expression of bcl-2,[8],did not reduce the expression
same,effect on migration (wound closure) compared to control,"[9]; DU145, 24 hours",no statistical significant effect
CC(=O)O[C@@]12CO[C@@H]1C[C@H](O)[C@@]1(C)C(=O)[C@H](O)C3=C(C)[C@@H](OC(=O)[C@H](O)[C@@H](NC(=O)OC(C)(C)C)c4ccccc4)C[C@@](O)([C@@H](OC(=O)c4ccccc4)[C@H]21)C3(C)C [docetaxel],"cell invasion, matrigel invasion assay",[1],significantly inhibition of cell invasion
same,proportion of cells in G2 phase,"[2]; 5 nM docetaxel, alone or with 1 nM/1 μM desmopressin",significant increase in the proportion of cells in G2 phase
same,body weight,"[3]; PC3 xenograft, nude mice",consistently maintained their body weight
same,tolerability of treatment,"[3]; mouse, in vivo, iv",well tolerated
same,"cell proliferation / cell viability (MTS), relative to untreated control cells",[5],decreased cell viability in a dose dependent manner
same,"average tumor size, final direct measurement of excised tumors",[7],1330±550 mm3
same,effect on migration (wound closure) compared to control,"[9]; DU145, 24 hours",migration inhibitory effect
same,in vitro wound closure,"[9]; DU145, 24 hours, DTX 10 nM, alone or combined with 1 μm Desmopressin",48.9%
same,cell kill in wound healing assay,"[9]; DU145, DTX concentration of 100 μM",significant cell kill
